Here are results for 48 compounds from ChEMBL document CHEMBL1142367, “1H-Pyrazolo[3,4-g]hexahydro-isoquinolines as selective glucocorticoid receptor antagonists with high functional activity” (Bioorg Med Chem Lett, 2008).

pKi: −log10 of the molar value. Some results are limits rather than exact numbers.

The pKi is the Ki on a negative log10 scale, so that one unit is a factor of ten. Usually bioavailability stands for dose-corrected exposure relative to a reference, in per cent. A lower bioavailability goes with poor availability.

The target in data set [1] is T1, Glucocorticoid receptor (Homo sapiens, UniProt P04150).
T1 sequence (P04150 whole entry): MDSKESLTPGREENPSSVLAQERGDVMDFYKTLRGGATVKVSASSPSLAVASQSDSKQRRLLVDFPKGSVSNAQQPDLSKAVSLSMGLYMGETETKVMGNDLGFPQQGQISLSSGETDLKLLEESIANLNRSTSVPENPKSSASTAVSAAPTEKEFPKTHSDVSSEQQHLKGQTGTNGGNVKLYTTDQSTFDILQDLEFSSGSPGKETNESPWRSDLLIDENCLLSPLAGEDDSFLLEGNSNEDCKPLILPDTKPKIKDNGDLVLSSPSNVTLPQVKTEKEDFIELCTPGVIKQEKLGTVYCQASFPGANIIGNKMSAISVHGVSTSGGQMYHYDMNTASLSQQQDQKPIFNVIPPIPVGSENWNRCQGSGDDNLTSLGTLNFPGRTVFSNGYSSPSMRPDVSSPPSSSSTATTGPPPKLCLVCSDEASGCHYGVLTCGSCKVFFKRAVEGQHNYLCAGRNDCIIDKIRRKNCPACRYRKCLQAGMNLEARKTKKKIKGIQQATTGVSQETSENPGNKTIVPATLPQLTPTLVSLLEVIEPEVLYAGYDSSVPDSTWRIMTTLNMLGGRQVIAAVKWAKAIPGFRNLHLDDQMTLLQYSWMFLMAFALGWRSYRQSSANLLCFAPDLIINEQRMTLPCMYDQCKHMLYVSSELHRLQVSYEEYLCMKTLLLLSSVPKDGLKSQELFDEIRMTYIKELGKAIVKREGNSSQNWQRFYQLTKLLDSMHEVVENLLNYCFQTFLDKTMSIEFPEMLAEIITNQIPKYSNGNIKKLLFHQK
Kind of data set: Displacement of [3H]dexamethasone from human recombinant GR.

For data set [2], the target named is T1, Glucocorticoid receptor. Kind of data set: Antagonist activity at GR in SW1353/MMTV5 cells assessed as inhibition of dexamethasone-induced luciferase expression. Type of data set: functional, cell-based.
Data set [3] is described as follows: Oral bioavailability in rat. Format: ADME, organism-based. The settings on record: in vivo.

`COC[C@]12Cc3cnn(-c4ccc(F)cc4)c3C=C1CCN(S(=O)(=O)c1ccc(C)cc1)C2`: the pKi was 9.30 on Glucocorticoid receptor [1] and 8.24 on Glucocorticoid receptor [2].
For the compound `C[C@]12Cc3cnn(-c4ccc(F)cc4)c3C=C1CCN(S(=O)(=O)c1ccc(F)cc1)C2`, the pKi on Glucocorticoid receptor [1] was 8.05; on Glucocorticoid receptor [2], 6.53.
On to `CN(C)C[C@]12Cc3cnn(-c4ccc(F)cc4)c3C=C1CCN(S(=O)(=O)c1ccc(F)cc1)C2`, for which the pKi is 8.59 on Glucocorticoid receptor [1] and 7.54 at Glucocorticoid receptor [2].
`CN(C)C[C@]12Cc3cnn(-c4ccc(F)cc4)c3C=C1CCN(S(=O)(=O)c1ccc(C(C)(C)C)cc1)C2`: the pKi at Glucocorticoid receptor [1] is 8.92; at Glucocorticoid receptor [2], 8.16. The compound also displayed a bioavailability in data set [3] of 0%.
Regarding `CC(C)(C)c1ccc(S(=O)(=O)N2CCC3=Cc4c(cnn4-c4ccc(F)cc4)C[C@]3(Cc3ccccc3)C2)cc1`, the values for the pKi at Glucocorticoid receptor [1] and at Glucocorticoid receptor [2] were 8.85 and 8.33, respectively.
For `C[C@]12Cc3cnn(-c4ccc(F)cc4)c3C=C1CCN(S(=O)(=O)c1ccccc1F)C2`, the pKi on Glucocorticoid receptor [1] was 7.47.
`O=S(=O)(c1ccccc1)N1CCC2=Cc3c(cnn3-c3ccc(F)cc3)C[C@]2(CN2CCCC2)C1`: the results for the negative logarithm of the Ki (pKi) at Glucocorticoid receptor [1] and at Glucocorticoid receptor [2] were 8.82 and 8.31, respectively.
For the compound `CN(C)C[C@]12Cc3cnn(-c4ccc(F)cc4)c3C=C1CCN(S(=O)(=O)c1ccccc1)C2`, the pKi on Glucocorticoid receptor [1] is 8.96; on Glucocorticoid receptor [2] it was 8.00.
On to `CC(C)NC[C@]12Cc3cnn(-c4ccc(F)cc4)c3C=C1CCN(S(=O)(=O)c1ccc(C(C)(C)C)cc1)C2`, for which the pKi on Glucocorticoid receptor [1] is 8.68; on Glucocorticoid receptor [2] it was 7.77. Moreover, the bioavailability in data set [3] is 5%.
As to `CC(C)(C)c1ccc(S(=O)(=O)N2CCC3=Cc4c(cnn4-c4ccc(F)cc4)C[C@]3(CN3CCCCC3)C2)cc1`, the values for the pKi on Glucocorticoid receptor [1] and on Glucocorticoid receptor [2] were 8.80 and 8.24, respectively.
`O=S(=O)(c1ccccc1)N1CCC2=Cc3c(cnn3-c3ccc(F)cc3)C[C@]2(CO)C1`: the pKi on Glucocorticoid receptor [1] was 8.00.
On to `COCCNC[C@]12Cc3cnn(-c4ccc(F)cc4)c3C=C1CCN(S(=O)(=O)c1ccc(C(C)(C)C)cc1)C2`, for which the pKi was 9.00 on Glucocorticoid receptor [1] and 8.51 on Glucocorticoid receptor [2]. In data set [3], the bioavailability was found to be 0%.
Consider `CC(C)(C)c1ccc(S(=O)(=O)N2CCC3=Cc4c(cnn4-c4ccc(F)cc4)C[C@]3(COCCO)C2)cc1`, for which the pKi is 9.10 on Glucocorticoid receptor [1] and 8.06 on Glucocorticoid receptor [2].
In the case of `COCCOC[C@]12Cc3cnn(-c4ccc(F)cc4)c3C=C1CCN(S(=O)(=O)c1ccc(C(C)(C)C)cc1)C2`, the pKi was 9.15 at Glucocorticoid receptor [1] and 9.22 on Glucocorticoid receptor [2]. In addition, in data set [3], the bioavailability was 0%.
As to `COCCOC[C@]12Cc3cnn(-c4ccc(F)cc4)c3C=C1CCN(S(=O)(=O)c1ccccc1)C2`, the pKi was 9.30 at Glucocorticoid receptor [1] and 8.54 on Glucocorticoid receptor [2].
In turn, `COCCOC[C@]12Cc3cnn(-c4ccc(F)cc4)c3C=C1CCN(S(=O)(=O)c1ccc(C)cc1)C2` registered a bioavailability in data set [3] of 8%.
Regarding `CC(C)(C)c1ccc(S(=O)(=O)N2CCC3=Cc4c(cnn4-c4ccc(F)cc4)C[C@]3(CO)C2)cc1`, the figures for the pKi at Glucocorticoid receptor [1] and at Glucocorticoid receptor [2] were 8.80 and 7.33, respectively.
`CCCOC[C@]12Cc3cnn(-c4ccc(F)cc4)c3C=C1CCN(S(=O)(=O)c1ccc(C(F)(F)F)cc1)C2`: the results for the pKi at Glucocorticoid receptor [1] and at Glucocorticoid receptor [2] were 9.05 and 8.05, respectively.
With `O=S(=O)(c1ccc(F)cc1)N1CCC2=Cc3c(cnn3-c3ccc(F)cc3)C[C@]2(CO)C1`, the values for the negative-log Ki (pKi) on Glucocorticoid receptor [1] and on Glucocorticoid receptor [2] were 8.07 and 6.74, respectively.
Turning to `CCOC[C@]12Cc3cnn(-c4ccc(F)cc4)c3C=C1CCN(S(=O)(=O)c1ccc(C(C)(C)C)cc1)C2`, the figures for the pKi on Glucocorticoid receptor [1] and at Glucocorticoid receptor [2] were 9.10 and 8.72, respectively.
In the case of `C[C@]12Cc3cnn(-c4ccc(F)cc4)c3C=C1CCN(S(=O)(=O)c1ccc(N)cc1)C2`, the negative logarithm of the Ki (pKi) was 7.77 on Glucocorticoid receptor [1] and less than 6.00 on Glucocorticoid receptor [2].
Consider `CC(C)(C)c1ccc(S(=O)(=O)N2CCC3=Cc4c(cnn4-c4ccc(F)cc4)C[C@]3(CNCCO)C2)cc1`, for which the pKi at Glucocorticoid receptor [1] is 8.55; at Glucocorticoid receptor [2], 7.55.
Regarding `Cc1ccc(S(=O)(=O)N2CCC3=Cc4c(cnn4-c4ccc(F)cc4)C[C@]3(C)C2)cc1`, the values for the negative-log Ki (pKi) at Glucocorticoid receptor [1] and on Glucocorticoid receptor [2] were 8.64 and 7.02, respectively.
Taken in the same sequence, the figures for `C=CCNC[C@]12Cc3cnn(-c4ccc(F)cc4)c3C=C1CCN(S(=O)(=O)c1ccc(C(C)(C)C)cc1)C2` were 9.05 and 7.96.
For `CC(C)(C)c1ccc(S(=O)(=O)N2CCC3=Cc4c(cnn4-c4ccc(F)cc4)C[C@]3(CN3CCC3)C2)cc1`, the pKi was 8.85 at Glucocorticoid receptor [1] and 7.96 at Glucocorticoid receptor [2]. Moreover, the bioavailability in data set [3] was determined as 4%.
As to `CN1CCN(C[C@]23Cc4cnn(-c5ccc(F)cc5)c4C=C2CCN(S(=O)(=O)c2ccc(C(C)(C)C)cc2)C3)CC1`, the results for the pKi at Glucocorticoid receptor [1] and on Glucocorticoid receptor [2] were 8.17 and 7.07, respectively.
As for `CCN(CC)C[C@]12Cc3cnn(-c4ccc(F)cc4)c3C=C1CCN(S(=O)(=O)c1ccc(C(C)(C)C)cc1)C2`, the pKi on Glucocorticoid receptor [1] was 8.77; on Glucocorticoid receptor [2], 7.85.
On to `Cc1ccccc1S(=O)(=O)N1CCC2=Cc3c(cnn3-c3ccc(F)cc3)C[C@]2(C)C1`, for which, on Glucocorticoid receptor [1], the pKi was 7.66.
`CC(C)(C)c1ccc(S(=O)(=O)N2CCC3=Cc4c(cnn4-c4ccc(F)cc4)C[C@]3(COCCN3CCCCC3)C2)cc1`: the pKi on Glucocorticoid receptor [1] was 8.07; on Glucocorticoid receptor [2], 7.11.
As to `CCNC[C@]12Cc3cnn(-c4ccc(F)cc4)c3C=C1CCN(S(=O)(=O)c1ccc(C(C)(C)C)cc1)C2`, the pKi on Glucocorticoid receptor [1] was 8.62; on Glucocorticoid receptor [2] it was 7.80. The bioavailability in data set [3] came out at 0%.
As to `COCCCOC[C@]12Cc3cnn(-c4ccc(F)cc4)c3C=C1CCN(S(=O)(=O)c1ccc(C(C)(C)C)cc1)C2`, the pKi on Glucocorticoid receptor [1] was 9.10; on Glucocorticoid receptor [2] it was 8.80.
With `O=S(=O)(c1ccccc1)N1CCC2=Cc3c(cnn3-c3ccc(F)cc3)C[C@]2(CN2CCCCC2)C1`, the negative logarithm of the Ki (pKi) at Glucocorticoid receptor [1] is 9.10; at Glucocorticoid receptor [2], 8.24.
`O=S(=O)(c1ccc(F)cc1)N1CCC2=Cc3c(cnn3-c3ccc(F)cc3)C[C@]2(CN2CCCC2)C1`: the results for the negative logarithm of the Ki (pKi) on Glucocorticoid receptor [1] and on Glucocorticoid receptor [2] were 8.80 and 8.10, respectively.
Take `C[C@]12Cc3cnn(-c4ccc(F)cc4)c3C=C1CCN(S(=O)(=O)c1ccc(C(F)(F)F)cc1)C2`: the pKi is 8.47 on Glucocorticoid receptor [1] and 7.11 at Glucocorticoid receptor [2].
Turning to `CC(C)(C)c1ccc(S(=O)(=O)N2CCC3=Cc4c(cnn4-c4ccc(F)cc4)C[C@]3(COCCC#N)C2)cc1`, the pKi was 9.10 on Glucocorticoid receptor [1] and 8.29 on Glucocorticoid receptor [2]. In addition, the bioavailability in data set [3] stood at 2%.
With `COc1ccc(S(=O)(=O)N2CCC3=Cc4c(cnn4-c4ccc(F)cc4)C[C@]3(C)C2)cc1`, the negative-log Ki (pKi) was 8.43 on Glucocorticoid receptor [1] and 6.75 at Glucocorticoid receptor [2].
In the case of `CC(C)(C)c1ccc(S(=O)(=O)N2CCC3=Cc4c(cnn4-c4ccc(F)cc4)C[C@]3(CN3CCCC3)C2)cc1`, the pKi on Glucocorticoid receptor [1] is 8.96; on Glucocorticoid receptor [2], 8.47. Besides, in data set [3], the bioavailability amounted to 2%.
As to `CN(C)CCNC[C@]12Cc3cnn(-c4ccc(F)cc4)c3C=C1CCN(S(=O)(=O)c1ccc(C(C)(C)C)cc1)C2`, the pKi was 8.42 at Glucocorticoid receptor [1] and 7.22 on Glucocorticoid receptor [2].
For `Fc1ccc(CC23Cc4cnn(-c5ccc(F)cc5)c4C=C2CCN(Cc2cccnc2)C3)cc1` (racemic), the pKi was 7.66 on Glucocorticoid receptor [1] and less than 6.00 on Glucocorticoid receptor [2].
For `O=C(c1ccccc1)N1CCC2=Cc3c(cnn3-c3ccc(F)cc3)CC2(Cc2ccc(F)cc2)C1` (racemic), the pKi on Glucocorticoid receptor [1] is less than 6.00.
For `CC(C)(C)c1ccc(S(=O)(=O)N2CCC3=Cc4c(cnn4-c4ccc(F)cc4)CC3(Cc3ccc(F)cc3)C2)cc1` (racemic), the pKi on Glucocorticoid receptor [1] was 8.89; at Glucocorticoid receptor [2], 7.85.
With `O=S(=O)(c1ccccc1)N1CCC2=Cc3c(cnn3-c3ccc(F)cc3)CC2(Cc2ccc(F)cc2)C1` (racemic), the pKi at Glucocorticoid receptor [1] is 8.66; on Glucocorticoid receptor [2] it was 7.44.
Consider `O=S(=O)(N1CCOCC1)N1CCC2=Cc3c(cnn3-c3ccc(F)cc3)CC2(Cc2ccc(F)cc2)C1` (racemic), for which the pKi at Glucocorticoid receptor [1] was 7.59; on Glucocorticoid receptor [2], less than 6.00.
As for `O=S(=O)(c1ccc(F)cc1)N1CCC2=Cc3c(cnn3-c3ccc(F)cc3)CC2(Cc2ccc(F)cc2)C1` (racemic), the pKi on Glucocorticoid receptor [1] was 8.85; on Glucocorticoid receptor [2], 7.59.
Taken in the same sequence, the figures for `O=S(=O)(c1ccc(N2CCOCC2)cc1)N1CCC2=Cc3c(cnn3-c3ccc(F)cc3)CC2(Cc2ccc(F)cc2)C1` (racemic) were 8.89 and 7.96.
In the same order, the values of `CS(=O)(=O)N1CCC2=Cc3c(cnn3-c3ccc(F)cc3)CC2(Cc2ccc(F)cc2)C1` (racemic) are 7.89 and less than 6.00.
In the case of `Cc1ccc(S(=O)(=O)N2CCC3=Cc4c(cnn4-c4ccc(F)cc4)CC3(Cc3ccc(F)cc3)C2)cc1` (racemic), the results for the pKi at Glucocorticoid receptor [1] and at Glucocorticoid receptor [2] were 8.82 and 7.77, respectively.
For `CCOC[C@]12Cc3cnn(-c4ccc(F)cc4)c3C=C1CCN(S(=O)(=O)c1ccc(C(F)(F)F)cc1)C2` [CORT 108297], the values for the pKi at Glucocorticoid receptor [1] and on Glucocorticoid receptor [2] were 9.05 and 8.17, respectively.
